PubChem BioAssay (NCI)
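Results reflect a 48-hour exposure of cells in 96-well plates to compound at five concentrations. TGI is the concentration that stops growth completely.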

Experiments:
Experiment in all cases: NCI anticancer screen, dose series, 48 h
786-0 renal = test system: 786-0 renal
A549 NSCLC = test system: A549 NSCLC
ACHN renal = test system: ACHN renal
BT-549 breast = test system: BT-549 breast
CAKI-1 renal = test system: CAKI-1 renal
CCRF-CEM leukemia = test system: CCRF-CEM leukemia
COLO 205 colon = test system: COLO 205 colon
DU-145 prostate = test system: DU-145 prostate
EKVX NSCLC = test system: EKVX NSCLC
HCC-2998 colon = test system: HCC-2998 colon
HCT-116 colon = test system: HCT-116 colon
HCT-15 colon = test system: HCT-15 colon
HOP-62 NSCLC = test system: HOP-62 NSCLC
HOP-92 NSCLC = test system: HOP-92 NSCLC
HS 578T breast = test system: HS 578T breast
HT29 colon = test system: HT29 colon
IGROV1 ovarian = test system: IGROV1 ovarian
K-562 leukemia = test system: K-562 leukemia
KM12 colon = test system: KM12 colon
LOX IMVI melanoma = test system: LOX IMVI melanoma
M14 melanoma = test system: M14 melanoma
MALME-3M melanoma = test system: MALME-3M melanoma
MCF7 breast = test system: MCF7 breast
MDA-MB-231 breast = test system: MDA-MB-231 breast
MDA-MB-435 = test system: MDA-MB-435
MDA-N = test system: MDA-N
MOLT-4 leukemia = test system: MOLT-4 leukemia
NCI-H23 lung = test system: NCI-H23 lung
NCI-H460 lung = test system: NCI-H460 lung
NCI-H522 lung = test system: NCI-H522 lung
OVCAR-4 ovarian = test system: OVCAR-4 ovarian
OVCAR-5 ovarian = test system: OVCAR-5 ovarian
OVCAR-8 ovarian = test system: OVCAR-8 ovarian
PC-3 prostate = test system: PC-3 prostate
RXF 393 renal = test system: RXF 393 renal
SF-268 CNS = test system: SF-268 CNS
SF-295 CNS = test system: SF-295 CNS
SK-MEL-2 melanoma = test system: SK-MEL-2 melanoma
SK-MEL-28 melanoma = test system: SK-MEL-28 melanoma
SK-MEL-5 melanoma = test system: SK-MEL-5 melanoma
SK-OV-3 ovarian = test system: SK-OV-3 ovarian
SN12C renal = test system: SN12C renal
SNB-19 CNS = test system: SNB-19 CNS
SNB-75 CNS = test system: SNB-75 CNS
SR leukemia = test system: SR leukemia
SW-620 colon = test system: SW-620 colon
T-47D breast = test system: T-47D breast
TK-10 renal = test system: TK-10 renal
U251 CNS = test system: U251 CNS
UACC-257 melanoma = test system: UACC-257 melanoma
UACC-62 melanoma = test system: UACC-62 melanoma
UO-31 renal = test system: UO-31 renal
A498 renal = test system: A498 renal
HL-60(TB) leukemia = test system: HL-60(TB) leukemia
NCI/ADR-RES ovarian = test system: NCI/ADR-RES ovarian
OVCAR-3 ovarian = test system: OVCAR-3 ovarian
RPMI-8226 leukemia = test system: RPMI-8226 leukemia
SF-539 CNS = test system: SF-539 CNS

Clc1sc(Cl)c2c1[C@@H](Cl)C[C@@H]2Br was tested. Which TGI (786-0 renal) did it give?
The TGI was greater than 100 µM.

What about the TGI (A549 NSCLC) of the same molecule?
The TGI was greater than 100 µM.

What about the TGI (ACHN renal) of the same molecule?
The TGI was greater than 100 µM.

And the TGI (BT-549 breast)?
Its TGI is greater than 100 µM.

And the TGI (CAKI-1 renal)?
The TGI was greater than 100 µM.

What about the TGI (CCRF-CEM leukemia) of the same molecule?
Its TGI is 88.1 µM.

And the TGI (COLO 205 colon)?
The TGI was greater than 100 µM.

And the TGI (DU-145 prostate)?
Its TGI is greater than 100 µM.

And the TGI (EKVX NSCLC)?
The TGI was greater than 100 µM.

And the TGI (HCC-2998 colon)?
Its TGI is greater than 100 µM.

And the TGI (HCT-116 colon)?
The TGI was greater than 100 µM.

And the TGI (HCT-15 colon)?
The TGI was greater than 100 µM.

What about the TGI (HOP-62 NSCLC) of the same molecule?
Its TGI is greater than 100 µM.

What about the TGI (HOP-92 NSCLC) of the same molecule?
Its TGI is greater than 100 µM.

And the TGI (HS 578T breast)?
Its TGI is greater than 100 µM.

What about the TGI (HT29 colon) of the same molecule?
Its TGI is greater than 100 µM.

What about the TGI (IGROV1 ovarian) of the same molecule?
Its TGI is greater than 100 µM.

What about the TGI (K-562 leukemia) of the same molecule?
Its TGI is greater than 100 µM.

And the TGI (KM12 colon)?
Its TGI is greater than 100 µM.

What about the TGI (LOX IMVI melanoma) of the same molecule?
The TGI was greater than 100 µM.

And the TGI (M14 melanoma)?
The TGI was greater than 100 µM.

And the TGI (MALME-3M melanoma)?
Its TGI is greater than 100 µM.

And the TGI (MCF7 breast)?
The TGI was greater than 100 µM.

What about the TGI (MDA-MB-231 breast) of the same molecule?
The TGI was greater than 100 µM.

What about the TGI (MDA-MB-435) of the same molecule?
Its TGI is greater than 100 µM.

And the TGI (MDA-N)?
Its TGI is greater than 100 µM.

What about the TGI (MOLT-4 leukemia) of the same molecule?
Its TGI is 43.9 µM.

And the TGI (NCI-H23 lung)?
The TGI was greater than 100 µM.

And the TGI (NCI-H460 lung)?
The TGI was greater than 100 µM.

What about the TGI (NCI-H522 lung) of the same molecule?
Its TGI is greater than 100 µM.

What about the TGI (OVCAR-4 ovarian) of the same molecule?
Its TGI is greater than 100 µM.

And the TGI (OVCAR-5 ovarian)?
Its TGI is greater than 100 µM.

And the TGI (OVCAR-8 ovarian)?
The TGI was greater than 100 µM.

What about the TGI (PC-3 prostate) of the same molecule?
Its TGI is greater than 100 µM.

What about the TGI (RXF 393 renal) of the same molecule?
Its TGI is greater than 100 µM.

What about the TGI (SF-268 CNS) of the same molecule?
The TGI was greater than 100 µM.

And the TGI (SF-295 CNS)?
Its TGI is greater than 100 µM.

What about the TGI (SK-MEL-2 melanoma) of the same molecule?
The TGI was greater than 100 µM.

What about the TGI (SK-MEL-28 melanoma) of the same molecule?
Its TGI is greater than 100 µM.

What about the TGI (SK-MEL-5 melanoma) of the same molecule?
Its TGI is greater than 100 µM.

And the TGI (SK-OV-3 ovarian)?
Its TGI is greater than 100 µM.

What about the TGI (SN12C renal) of the same molecule?
The TGI was greater than 100 µM.

And the TGI (SNB-19 CNS)?
The TGI was greater than 100 µM.

And the TGI (SNB-75 CNS)?
Its TGI is greater than 100 µM.

And the TGI (SR leukemia)?
Its TGI is 48.3 µM.

And the TGI (SW-620 colon)?
The TGI was greater than 100 µM.

And the TGI (T-47D breast)?
The TGI was greater than 100 µM.

And the TGI (TK-10 renal)?
Its TGI is greater than 100 µM.

And the TGI (U251 CNS)?
Its TGI is greater than 100 µM.

What about the TGI (UACC-257 melanoma) of the same molecule?
The TGI was greater than 100 µM.

And the TGI (UACC-62 melanoma)?
The TGI was greater than 100 µM.

What about the TGI (UO-31 renal) of the same molecule?
The TGI was greater than 100 µM.

Which TGI (786-0 renal) does the source give for CCN(CC)c1ccc(/C=C/c2ccnc3ccccc23)cc1 here?
The TGI was greater than 100 µM.

And the TGI (A498 renal)?
The TGI was greater than 100 µM.

What about the TGI (A549 NSCLC) of the same molecule?
The TGI was greater than 100 µM.

And the TGI (ACHN renal)?
Its TGI is greater than 100 µM.

What about the TGI (BT-549 breast) of the same molecule?
The TGI was greater than 100 µM.

What about the TGI (CAKI-1 renal) of the same molecule?
The TGI was greater than 100 µM.

And the TGI (CCRF-CEM leukemia)?
The TGI was greater than 100 µM.

And the TGI (COLO 205 colon)?
Its TGI is greater than 100 µM.

And the TGI (DU-145 prostate)?
The TGI was greater than 100 µM.

What about the TGI (EKVX NSCLC) of the same molecule?
Its TGI is greater than 100 µM.

What about the TGI (HCC-2998 colon) of the same molecule?
Its TGI is greater than 100 µM.

And the TGI (HCT-116 colon)?
The TGI was greater than 100 µM.

And the TGI (HCT-15 colon)?
The TGI was greater than 100 µM.

What about the TGI (HL-60(TB) leukemia) of the same molecule?
Its TGI is greater than 100 µM.

What about the TGI (HOP-62 NSCLC) of the same molecule?
Its TGI is greater than 100 µM.

And the TGI (HOP-92 NSCLC)?
The TGI was greater than 100 µM.

And the TGI (HS 578T breast)?
Its TGI is greater than 100 µM.

And the TGI (HT29 colon)?
Its TGI is greater than 100 µM.

And the TGI (IGROV1 ovarian)?
The TGI was greater than 100 µM.

What about the TGI (K-562 leukemia) of the same molecule?
Its TGI is greater than 100 µM.

And the TGI (KM12 colon)?
Its TGI is greater than 100 µM.

And the TGI (LOX IMVI melanoma)?
The TGI was greater than 100 µM.

And the TGI (M14 melanoma)?
Its TGI is greater than 100 µM.

What about the TGI (MALME-3M melanoma) of the same molecule?
Its TGI is greater than 100 µM.

And the TGI (MCF7 breast)?
Its TGI is greater than 100 µM.

And the TGI (MDA-MB-231 breast)?
The TGI was greater than 100 µM.

And the TGI (MDA-MB-435)?
Its TGI is greater than 100 µM.

And the TGI (MDA-N)?
Its TGI is greater than 100 µM.

What about the TGI (NCI-H23 lung) of the same molecule?
Its TGI is greater than 100 µM.

And the TGI (NCI-H460 lung)?
Its TGI is greater than 100 µM.

What about the TGI (NCI/ADR-RES ovarian) of the same molecule?
Its TGI is greater than 100 µM.

And the TGI (OVCAR-3 ovarian)?
The TGI was greater than 100 µM.

What about the TGI (OVCAR-4 ovarian) of the same molecule?
Its TGI is greater than 100 µM.

What about the TGI (OVCAR-5 ovarian) of the same molecule?
Its TGI is greater than 100 µM.

And the TGI (PC-3 prostate)?
The TGI was greater than 100 µM.

What about the TGI (RPMI-8226 leukemia) of the same molecule?
Its TGI is greater than 100 µM.

What about the TGI (RXF 393 renal) of the same molecule?
The TGI was greater than 100 µM.

And the TGI (SF-268 CNS)?
Its TGI is greater than 100 µM.

What about the TGI (SF-295 CNS) of the same molecule?
Its TGI is greater than 100 µM.

What about the TGI (SF-539 CNS) of the same molecule?
Its TGI is greater than 100 µM.

What about the TGI (SK-MEL-2 melanoma) of the same molecule?
Its TGI is greater than 100 µM.

What about the TGI (SK-MEL-28 melanoma) of the same molecule?
The TGI was greater than 100 µM.

What about the TGI (SK-MEL-5 melanoma) of the same molecule?
Its TGI is greater than 100 µM.

And the TGI (SK-OV-3 ovarian)?
Its TGI is greater than 100 µM.

And the TGI (SN12C renal)?
The TGI was greater than 100 µM.

And the TGI (SNB-19 CNS)?
The TGI was greater than 100 µM.

What about the TGI (SNB-75 CNS) of the same molecule?
The TGI was greater than 100 µM.

What about the TGI (SR leukemia) of the same molecule?
Its TGI is greater than 100 µM.

What about the TGI (SW-620 colon) of the same molecule?
The TGI was greater than 100 µM.

And the TGI (T-47D breast)?
The TGI was greater than 100 µM.

What about the TGI (TK-10 renal) of the same molecule?
The TGI was greater than 100 µM.

And the TGI (U251 CNS)?
The TGI was greater than 100 µM.

What about the TGI (UACC-257 melanoma) of the same molecule?
The TGI was greater than 100 µM.

And the TGI (UACC-62 melanoma)?
The TGI was greater than 100 µM.

What about the TGI (UO-31 renal) of the same molecule?
The TGI was greater than 100 µM.
